Measurements: patent US20170312253A1 (The Third Affiliated Hospital, Third Military Medical …, priority 2014, published 2017)

Experiments:
[1] = system: neural inflammatory reactions; test: Neural inflammatory reaction in brain (ELISA of IL-6, IL-1β, INF-γ, TNF-β); type: in vivo; details: AD mice
Experimental: (§1) APPswe/PS1DE9 (AD) transgenic mice were purchased from Jackson Laboratory, USA (No. 005864), raised in the SPF grade animal house of The Third Affiliated Hospital of The Third Military Medical University. All the processes and correlated experiments applied to the mice were approved and filed with the Animal Ethics Committee of the Third Military Medical University. […] Alternatively, the daily dose for the prophylactic group may be 6.4 mg/kg, and the daily dose for the treatment group may be 12.8 mg/kg. Administration from 3-month old to 9-month old is the prophylactic test, and administration from 9-month old to 12-month old is the therapeutic test After reaching a stated time, the mice in each group received behavioral tests according to the method in the follows. Three mice in each group were taken for Golgi staining. The remaining mice were overly anaesthetized to receive brain anatomy. One side of the cerebral hemisphere was frozen and then for a biochemical analysis, and the other side of the cerebral hemisphere was fixed with 4% paraform for a histological analysis.
After homogenating the frozen brain tissues, extraction was conducted with TBS, SDS and formic acid successively. The TBS, SDS and formic acid extracts represent soluble Aβ, loosen senile plaques and compact senile plaques, respectively. […]

BACE = test: In vitro test of BACE expression
Aβ fibers (Aβ 42) = Aβ fibers (Aβ 42) (Homo sapiens, UniProt P05067); test: Thioflavin T fluorescence test, disaggregation of Aβ fibers; type: biochemical; details: preformed Aβ fibers, Edaravone 0-100 μM, three days
Chain of Aβ fibers (Aβ 42) (P05067 672-713 limits assumed): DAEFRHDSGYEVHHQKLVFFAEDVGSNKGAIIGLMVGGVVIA

N2a/Swe.Δ9 cells = details: cited from earlier work
β-secretase (BACE1) = test: Western blot of BACE1 expression in brain; type: in vivo; details: AD mice brain
Experimental: (§2) APPswe/PS1DE9 (AD) transgenic mice were purchased from Jackson Laboratory, USA (No. 005864), raised in the SPF grade animal house of The Third Affiliated Hospital of The Third Military Medical University. All the processes and correlated experiments applied to the mice were approved and filed with the Animal Ethics Committee of the Third Military Medical University. […] Alternatively, the daily dose for the prophylactic group may be 6.4 mg/kg, and the daily dose for the treatment group may be 12.8 mg/kg. […]
(§3) The enzymes related with Aβ formation and degradation their molecule levels, the levels of hyperphosphprylated Tau proteins, and the levels of synaptic plasticity correlated proteins were all detected with Western blot. […] The blotting was detected with the following antibodies: APP C terminal antibody (171610, Millipore), BACE1 antibody (Millipore), Aβ antibody (6E10, Abcam), Nepriiysin antibody (Millipore), RAGE antibody (Millipore), LRP antibody (5A6, Calbiochem), IDE antibody (epitomics), phosphorylated Tau protein antibody, including pS396 (Signalway), pT231 (Signalway), pS199 (epitomics), pS262 (Abcam), SNAP25 antibody (Millipore), Synaptophysin antibody (Millipore), Synapsin I antibody (Millipore), VAMP1 antibody (Millipore), PSD95 antibody (Millipore), F-actin antibody (Actin) (Sigma-Aldrich). […]

[2] = system: Aβ deposition in the brain; test: Quantitative analysis of Aβ deposition in the brain (Congo red, 6E10); type: in vivo; details: AD mice, Congo red staining and 6E10 immunostaining
Experimental: as §1
The compact Aβ plaque was stained and labelled with Congo red. […] The Aβ plaques in the neopallium and hippocampal area were quantitatively analyzed with ImageJ analysis software to obtain the area percentage of the Aβ plaque and the quantities in a unit area.

Tau protein = test: Western blot of phosphorylated Tau protein; type: in vivo; details: AD mice
Experimental: as §2, §3

LRP = test: Western blot of Aβ metabolizing enzymes in brain: LRP; type: in vivo; details: AD mice brain
Experimental: as §2, §3

Aβ42 = Aβ42 (Homo sapiens, UniProt P05067); test: Western blot determination of aggregation-inhibitive effect on Aβ; type: biochemical; details: read-out: inhibition of Aβ from forming aggregates (Western blot)
Chain of Aβ42 (P05067 672-713 limits assumed): as above

[3] = system: APPswe/PS1DE9 (AD) transgenic mice; test: Morris water maze; type: in vivo; details: prophylactic and therapeutic test, vs control group
Experimental: APPswe/PS1DE9 (AD) transgenic mice were purchased from Jackson Laboratory, USA (No. 005864), raised in the SPF grade animal house of The Third Affiliated Hospital of The Third Military Medical University. All the processes and correlated experiments applied to the mice were approved and filed with the Animal Ethics Committee of the Third Military Medical University. […] Alternatively, the daily dose for the prophylactic group may be 6.4 mg/kg, and the daily dose for the treatment group may be 12.8 mg/kg. Administration from 3-month old to 9-month old is the prophylactic test, and administration from 9-month old to 12-month old is the therapeutic test After reaching a stated time, the mice in each group received behavioral tests according to the method in the follows. Three mice in each group were taken for Golgi staining. […] The entire process was recorded by video, and analyzed with an image analysis software (ANY-maze, Stoelting). In the platform test, the escape path length and escape latency were measured and calculated. In the probe test, the time in each quadrant and the time across platform were measured. […] In the open field test, the mouse was put in the center of an open field for 3 min, and its path was recorded by a tracking system (Limelight, ActiMetrics). At the same time, the numbers of rearing, grooming, defecation and urination of the mouse were recorded.

CC1=NN(c2ccccc2)C(=O)C1 [Edaravone, 3-methyl-1-phenyl-2-pyrazolin-5-one]
neural inflammatory reaction level in the brain ([1]; p.o.): significantly reduced, too
neural inflammatory reaction in the brain ([1]; prophylactic and therapeutic test): all reduced significantly
BACE expression in vitro (BACE): inhibits the BACE expression
disaggregation of formed Aβ fibers (thioflavin T) (Aβ fibers (Aβ 42)): disaggregate the formed Aβ fibers or larger aggregates effectively
mitochondrion dependant apoptosis pathway (N2a/Swe.Δ9 cells): inhibit the mitochondrion dependant apoptosis pathway
expression of β-secretase (BACE1) (β-secretase (BACE1)): significant decrease
Aβ deposition in the brain, of the control group [2]: about 50%
phosphorylation level of Tau protein (Tau protein): reduce the phosphorylation level of Tau protein at multiple pathological sites
influence on LRP (LRP): no influence
inhibition at 3 µM (Aβ42): 50%
Morris water maze escape time [3]: reduction of escape time
Morris water maze times across platform [3]: increase in times across platform
